For test [1], the target named is T1, Retinoic acid receptor alpha (Homo sapiens, UniProt P10276).
T1 sequence (P10276 whole entry): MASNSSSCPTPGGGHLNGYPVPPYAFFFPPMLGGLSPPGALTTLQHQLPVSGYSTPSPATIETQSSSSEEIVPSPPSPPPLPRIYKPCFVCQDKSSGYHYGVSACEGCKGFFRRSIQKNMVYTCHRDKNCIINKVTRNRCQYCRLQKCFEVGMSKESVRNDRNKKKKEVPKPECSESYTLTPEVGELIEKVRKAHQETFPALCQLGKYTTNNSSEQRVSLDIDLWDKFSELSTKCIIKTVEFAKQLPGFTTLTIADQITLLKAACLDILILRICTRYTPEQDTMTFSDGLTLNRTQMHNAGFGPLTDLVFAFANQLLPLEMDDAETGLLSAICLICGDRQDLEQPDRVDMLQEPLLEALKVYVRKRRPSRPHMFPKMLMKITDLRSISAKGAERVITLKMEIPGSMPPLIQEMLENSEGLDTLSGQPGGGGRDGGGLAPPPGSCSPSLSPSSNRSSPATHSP
Description: Ability to displace 3[H](all-E)-retinoic acid (5 nM) from alpha retinoic acid receptor (alpha RAR) using transactivation assay.

The target of test [2] is T2, Retinoic acid receptor gamma (Homo sapiens, UniProt P13631).
T2 sequence (P13631 whole entry): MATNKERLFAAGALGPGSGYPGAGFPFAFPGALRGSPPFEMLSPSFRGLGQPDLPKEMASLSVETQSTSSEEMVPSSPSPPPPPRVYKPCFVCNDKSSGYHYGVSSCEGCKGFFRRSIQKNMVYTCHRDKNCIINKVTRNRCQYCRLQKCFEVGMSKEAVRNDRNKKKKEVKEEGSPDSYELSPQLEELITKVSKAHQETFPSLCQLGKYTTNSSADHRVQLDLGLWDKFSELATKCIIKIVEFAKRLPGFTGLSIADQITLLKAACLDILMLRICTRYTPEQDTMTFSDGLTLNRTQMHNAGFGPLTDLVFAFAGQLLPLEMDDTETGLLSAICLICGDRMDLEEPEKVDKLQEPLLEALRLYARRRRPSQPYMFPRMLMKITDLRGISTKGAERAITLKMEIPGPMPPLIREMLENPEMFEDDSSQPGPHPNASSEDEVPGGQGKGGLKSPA
Briefly: Ability to displace 3[H](all-E)-retinoic acid (5 nM) from Retinoic acid receptor gamma using transactivation assay.

Test [3] has as its target T3, Retinoic acid receptor beta (Homo sapiens, UniProt P10826).
T3 sequence (P10826 whole entry): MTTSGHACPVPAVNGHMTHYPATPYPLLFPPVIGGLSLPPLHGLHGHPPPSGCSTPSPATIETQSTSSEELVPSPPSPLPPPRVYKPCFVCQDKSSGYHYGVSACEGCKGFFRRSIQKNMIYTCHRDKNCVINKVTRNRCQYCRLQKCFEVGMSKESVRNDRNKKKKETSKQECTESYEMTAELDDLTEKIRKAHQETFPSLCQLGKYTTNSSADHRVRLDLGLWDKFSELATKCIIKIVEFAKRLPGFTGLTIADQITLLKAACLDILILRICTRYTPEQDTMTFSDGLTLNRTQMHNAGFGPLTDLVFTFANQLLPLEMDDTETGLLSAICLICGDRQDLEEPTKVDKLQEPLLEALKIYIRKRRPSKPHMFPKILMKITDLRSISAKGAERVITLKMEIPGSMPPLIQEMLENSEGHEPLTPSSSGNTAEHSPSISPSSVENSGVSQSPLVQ
Briefly: Ability to displace 3[H](all-E)-retinoic acid (5 nM) from beta retinoic acid receptor (beta RAR) using transactivation assay.

Each structure is given as a SMILES string. pKd: −log10 of the molar value.

On to `Cc1ccc(C2=CCC(C)(C)c3ccc(C#Cc4ccc(C(=O)O)cc4)cc32)cc1`, for which the pKd in test [1] was 7.80; in test [2], 8.15; in test [3], 8.15.

Turning to `CC(C)c1ccc(C2=CCC(C)(C)c3ccc(C#Cc4ccc(C(=O)O)cc4)cc32)cc1`, the pKd in test [1] is 7.05; in test [2], 6.77; in test [3], 7.96.

For `CC1(C)CC=C(c2ccc(F)cc2)c2cc(C#Cc3ccc(C(=O)O)cc3)ccc21`, the negative-log Kd (pKd) in test [1] was 7.07; in test [2] it was 7.09; in test [3], 7.28.

For `CCc1ccc(C2=CCC(C)(C)c3ccc(C#Cc4ccc(C(=O)O)cc4)cc32)cc1`, the pKd was 7.40 in test [1], 7.72 in test [2] and 8.00 in test [3].

Consider `CC1(C)CC=C(c2cccc(O)c2)c2cc(C#Cc3ccc(C(=O)O)cc3)ccc21`, for which the pKd is 6.04 in test [1], 6.60 in test [2] and 6.79 in test [3].

`Cc1cccc(C2=CCC(C)(C)c3ccc(C#Cc4ccc(C(=O)O)cc4)cc32)c1`: the negative-log Kd (pKd) in test [1] is 6.56; in test [2] it was 7.17; in test [3], 7.29.

With `CC1(C)CC=C(c2ccc(C(F)(F)F)cc2)c2cc(C#Cc3ccc(C(=O)O)cc3)ccc21`, the pKd in test [1] is 7.36; in test [2], 7.24; in test [3], 7.54.

Regarding `Cc1cc(C)cc(C2=CCC(C)(C)c3ccc(C#Cc4ccc(C(=O)O)cc4)cc32)c1`, the pKd was 5.98 in test [1], 6.39 in test [2] and 6.56 in test [3].

As for `Cc1ccccc1C1=CCC(C)(C)c2ccc(C#Cc3ccc(C(=O)O)cc3)cc21`, the pKd in test [1] was 6.99; in test [2], 7.46; in test [3] it was 7.54.

Consider `CC1(C)CC=C(c2ccc(Cl)cc2)c2cc(C#Cc3ccc(C(=O)O)cc3)ccc21`, for which the pKd in test [1] is 7.24; in test [2] it was 7.57; in test [3] it was 7.74.

For the compound `CC1(C)CC=C(c2ccccc2)c2cc(C#Cc3ccc(C(=O)O)cc3)ccc21`, the pKd was 6.83 in test [1], 7.38 in test [2] and 7.48 in test [3].

As for `COc1ccc(C2=CCC(C)(C)c3ccc(C#Cc4ccc(C(=O)O)cc4)cc32)cc1`, the pKd in test [1] was 7.22; in test [2], 7.44; in test [3], 7.80.

Regarding `CC1(C)CC=C(c2ccc(C#N)cc2)c2cc(C#Cc3ccc(C(=O)O)cc3)ccc21`, the pKd was 7.42 in test [1], 7.29 in test [2] and 7.85 in test [3].

For the compound `CC(C)(C)c1ccc(C2=CCC(C)(C)c3ccc(C#Cc4ccc(C(=O)O)cc4)cc32)cc1`, the figures for the pKd in test [1], in test [2] and in test [3] were 6.75, 7.03 and 7.68, respectively.

On to `CC1(C)CC=C(c2ccc(O)cc2)c2cc(C#Cc3ccc(C(=O)O)cc3)ccc21`, for which the pKd in test [1] is 6.64; in test [2] it was 7.01; in test [3] it was 7.14.

For orientation: pKd means the negative decadic logarithm of the Kd, by convention in mol/L.
